Reference: patent US6737383B1, “Herbicidal oxadiazolidines” (priority 1999, dated 2004)

Assays:
[1] = system: duck salad; assay: Test B flood test duck salad; assay type: in vivo, Heteranthera limosa
Summary of the method: (§1)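 Each value is a visual injury score relative to controls, with 10 meaning complete control and 0 no effect. Evaluation took place twelve to sixteen days after the 2-leaf-stage plants were treated and kept in the greenhouse.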

[2] = system: wheat; assay: Test B pre/postemergence wheat; assay type: in vivo, Triticum aestivum
Summary of the method: (§2)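 Test chemicals in a non-phytotoxic solvent mixture with surfactant were sprayed preemergence onto planted seeds and postemergence onto plants 2 to 18 cm tall (1- to 4-leaf stage). After twelve to sixteen days in a greenhouse, injury was visually rated against untreated controls from 0 (no effect) to 10 (complete control).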

[3] = system: corn; assay: Test B pre/postemergence corn; assay type: in vivo, Zea mays
Summary of the method: as §2

[4] = system: surinam grass; assay: Test B pre/postemergence surinam grass; assay type: in vivo, Brachiaria decumbens
Summary of the method: as §2

[5] = system: cocklebur; assay: Test B pre/postemergence cocklebur; assay type: in vivo, Xanthium strumarium
Summary of the method: as §2

[6] = system: pigweed; assay: Test B pre/postemergence pigweed; assay type: in vivo, Amaranthus retroflexus
Summary of the method: as §2

[7] = system: smallflower flatsedge; assay: Test B flood test smallflower flatsedge; assay type: in vivo, Cyperus difformis
Summary of the method: as §1

[8] = system: rape; assay: Test B pre/postemergence rape; assay type: in vivo, Brassica napus
Summary of the method: as §2

[9] = system: rice; assay: Test B flood test rice; assay type: in vivo, Oryza sativa
Summary of the method: as §1

[10] = system: purple nutsedge; assay: Test B pre/postemergence purple nutsedge; assay type: in vivo, Cyperus rotundus
Summary of the method: as §2

[11] = system: sugar beet; assay: Test B pre/postemergence sugar beet; assay type: in vivo, Beta vulgaris
Summary of the method: as §2

[12] = system: velvetleaf; assay: Test B pre/postemergence velvetleaf; assay type: in vivo, Abutilon theophrasti
Summary of the method: as §2

[13] = system: wild oat; assay: Test B pre/postemergence wild oat; assay type: in vivo, Avena fatua
Summary of the method: as §2

[14] = system: bedstraw; assay: Test B pre/postemergence bedstraw; assay type: in vivo, Galium aparine
Summary of the method: as §2

[15] = system: giant foxtail; assay: Test B pre/postemergence giant foxtail; assay type: in vivo, Setaria faberii
Summary of the method: as §2

[16] = system: soybean; assay: Test B pre/postemergence soybean; assay type: in vivo, Glycine max
Summary of the method: as §2

[17] = Rate 62 g/ha, headed Pre-emergence (flood test species), scale 0 to 10 (0 no effect, 10 complete control)
[18] = Rate 125 g/ha, Pre-emergence, flood test species, scale 0 to 10 where 0 is no effect and 10 is complete control
[19] = Rate 250 g/ha, Pre-emergence, flood-test species, scale 0 to 10, 0 is no effect, 10 is complete control
[20] = Rate 500 g/ha, Pre-emergence, flood test species, scale 0 to 10 (0 no effect, 10 complete control)
[21] = Preemergence, Rate 62 g/ha, scale of 0 to 10 where 0 is no effect and 10 is complete control
[22] = Preemergence, Rate 250 g/ha, scale of 0 to 10 where 0 is no effect and 10 is complete control
[23] = Preemergence, Rate 500 g/ha, scale of 0 to 10 where 0 is no effect and 10 is complete control
[24] = Rate 62 g/ha, Postemergence, scale 0 to 10 (0 no effect, 10 complete control)
[25] = Rate 125 g/ha, Postemergence, scale of 0 to 10 where 0 is no effect and 10 is complete control
[26] = Rate 250 g/ha, Postemergence, scale of 0 to 10 where 0 is no effect and 10 is complete control
[27] = Rate 500 g/ha, Postemergence, scale 0 to 10, 0 no effect, 10 complete control

CC(C)N(C(=O)n1oc(=O)n(C2CCCCO2)c1=O)c1ccc(F)cc1 (centres unmarked) [Compound 311]
3: Plant response rating, Soybean [16, 26]
2: Bedstraw plant response rating [14, 27] | Soybean plant response rating [16, 24] | Soybean plant response rating [16, 25]
0: Ducksalad plant response rating [1, 17] | Ducksalad plant response rating [1, 18] | Ducksalad plant response rating [1, 19] | Ducksalad plant response rating [1, 20] | Wheat plant response rating [2, 21] | Wheat plant response rating (0 to 10 scale) ([2]; Preemergence, Rate 125 g/ha) | Wheat plant response rating [2, 22] | Wheat plant response rating [2, 23] | Wheat plant response rating [2, 24] | Wheat plant response rating [2, 25] | Plant response rating, Wheat [2, 26] | Corn plant response rating [3, 21] | Corn plant response rating (0 to 10 scale) ([3]; Preemergence, Rate 125 g/ha) | Corn plant response rating [3, 22] | Corn plant response rating [3, 23] | Corn plant response rating [3, 24] | Corn plant response rating [3, 25] | Plant response rating, Corn [3, 26] | Corn plant response rating [3, 27] | B. signalgrass plant response rating [4, 21] | B. signalgrass plant response rating (0 to 10 scale, 0 is no effect, 10 is complete control) ([4]; Preemergence, Rate 125 g/ha) | B. signalgrass plant response rating [4, 22] | B. signalgrass plant response rating [4, 23] | B. signalgrass plant response rating [4, 24] | B. signalgrass plant response rating [4, 25] | Plant response rating, B. signalgrass [4, 26] | B. signalgrass plant response rating [4, 27] | Cocklebur plant response rating [5, 21] | Cocklebur plant response rating (0 to 10 scale) ([5]; Preemergence, Rate 125 g/ha) | Cocklebur plant response rating [5, 22] | Cocklebur plant response rating [5, 23] | Cocklebur plant response rating [5, 24] | Cocklebur plant response rating [5, 25] | Plant response rating, Cocklebur [5, 26] | Cocklebur plant response rating [5, 27] | Redroot pigweed plant response rating [6, 21] | Redroot pigweed plant response rating (0 to 10 scale) ([6]; Preemergence, Rate 125 g/ha) | Redroot pigweed plant response rating [6, 22] | Redroot pigweed plant response rating [6, 23] | Redroot pigweed plant response rating [6, 24] | Redroot pigweed plant response rating [6, 25] | Plant response rating, Redroot pigweed [6, 26] | S. Flatsedge plant response rating [7, 17] | S. Flatsedge plant response rating [7, 18] | S. Flatsedge plant response rating [7, 19] | S. Flatsedge plant response rating [7, 20] | Rape plant response rating [8, 21] | Rape plant response rating (0 to 10 scale) ([8]; Preemergence, Rate 125 g/ha) | Rape plant response rating [8, 22] | Rape plant response rating [8, 23] | Rape plant response rating [8, 24] | Rape plant response rating [8, 25] | Plant response rating, Rape [8, 26] | Rice plant response rating [9, 17] | Rice plant response rating [9, 18] | Rice plant response rating [9, 19] | Rice plant response rating [9, 20] | Nutsedge plant response rating [10, 21] | Nutsedge plant response rating (0 to 10 scale) ([10]; Preemergence, Rate 125 g/ha) | Nutsedge plant response rating [10, 22] | Nutsedge plant response rating [10, 23] | Nutsedge plant response rating [10, 24] | Nutsedge plant response rating [10, 25] | Plant response rating, Nutsedge [10, 26] | Sugarbeets plant response rating [11, 21] | Sugarbeets plant response rating (0 to 10 scale) ([11]; Preemergence, Rate 125 g/ha) | Sugarbeets plant response rating [11, 22] | Sugarbeets plant response rating [11, 23] | Sugarbeets plant response rating [11, 24] | Sugarbeets plant response rating [11, 25] | Plant response rating, Sugarbeets [11, 26] | Velvetleaf plant response rating [12, 21] | Velvetleaf plant response rating (0 to 10 scale) ([12]; Preemergence, Rate 125 g/ha) | Velvetleaf plant response rating [12, 22] | Velvetleaf plant response rating [12, 23] | Velvetleaf plant response rating [12, 24] | Velvetleaf plant response rating [12, 25] | Plant response rating, Velvetleaf [12, 26] | Wild oats plant response rating [13, 21] | Wild oats plant response rating (0 to 10 scale) ([13]; Preemergence, Rate 125 g/ha) | Wild oats plant response rating [13, 22] | Wild oats plant response rating [13, 23] | Wild oats plant response rating [13, 24] | Wild oats plant response rating [13, 25] | Plant response rating, Wild oats [13, 26] | Bedstraw plant response rating [14, 21] | Bedstraw plant response rating (0 to 10 scale) ([14]; Preemergence, Rate 125 g/ha) | Bedstraw plant response rating [14, 22] | Bedstraw plant response rating [14, 23] | Bedstraw plant response rating [14, 24] | Bedstraw plant response rating [14, 25] | Plant response rating, Bedstraw [14, 26] | Giant foxtail plant response rating [15, 21] | Giant foxtail plant response rating (0 to 10 scale) ([15]; Preemergence, Rate 125 g/ha) | Giant foxtail plant response rating [15, 22] | Giant foxtail plant response rating [15, 23] | Giant foxtail plant response rating [15, 24] | Giant foxtail plant response rating [15, 25] | Plant response rating, Giant foxtail [15, 26] | Soybean plant response rating [16, 21] | Soybean plant response rating (0 to 10 scale) ([16]; Preemergence, Rate 125 g/ha) | Soybean plant response rating [16, 22] | Soybean plant response rating [16, 23]
